These results are taken from ChEMBL document CHEMBL4043130, “Discovery of a tetrahydroisoquinoline-based HDAC inhibitor with improved plasma stability” (Bioorg Med Chem, 2017).

Data set [1] is described as follows: Half life in rat plasma by HPLC analysis. Type of data set: ADME, cell-free.
Data set [2] can be described thus: Inhibition of HDAC in human HeLa nuclear extract preincubated for 5 mins followed by Boc-Lys (acetyl)-AMC addition measured after 10 mins by fluorescence assay.
The target in data set [3] is Histone deacetylase 1/2/3 (Homo sapiens) (UniProt Q13547+O15379+Q92769). Description: Inhibition of HDAC1/2/3 in human MDA-MB-231 cells assessed as increase in hyperacetylation of histone H3 level at 1 uM after 3 hrs by Western blot analysis. Type of data set: cell-based. (In general: Immunoblotting shows a protein as a band on a membrane.)
Data set [4] has as its system MDA-MB-231. The experiment in a line: Antitumor activity against human MDA-MB-231 cells xenografted subcutaneously in BALB/c nude mouse assessed as reduction in tumor growth at 90 mg/kg, po. Type of data set: functional, organism-based. A general note: In xenograft studies the graft and the host belong to different species.
For data set [5], the target named is T1, Protein deacetylase HDAC6 (Homo sapiens) (UniProt Q9UBN7).
T1 sequence (whole entry): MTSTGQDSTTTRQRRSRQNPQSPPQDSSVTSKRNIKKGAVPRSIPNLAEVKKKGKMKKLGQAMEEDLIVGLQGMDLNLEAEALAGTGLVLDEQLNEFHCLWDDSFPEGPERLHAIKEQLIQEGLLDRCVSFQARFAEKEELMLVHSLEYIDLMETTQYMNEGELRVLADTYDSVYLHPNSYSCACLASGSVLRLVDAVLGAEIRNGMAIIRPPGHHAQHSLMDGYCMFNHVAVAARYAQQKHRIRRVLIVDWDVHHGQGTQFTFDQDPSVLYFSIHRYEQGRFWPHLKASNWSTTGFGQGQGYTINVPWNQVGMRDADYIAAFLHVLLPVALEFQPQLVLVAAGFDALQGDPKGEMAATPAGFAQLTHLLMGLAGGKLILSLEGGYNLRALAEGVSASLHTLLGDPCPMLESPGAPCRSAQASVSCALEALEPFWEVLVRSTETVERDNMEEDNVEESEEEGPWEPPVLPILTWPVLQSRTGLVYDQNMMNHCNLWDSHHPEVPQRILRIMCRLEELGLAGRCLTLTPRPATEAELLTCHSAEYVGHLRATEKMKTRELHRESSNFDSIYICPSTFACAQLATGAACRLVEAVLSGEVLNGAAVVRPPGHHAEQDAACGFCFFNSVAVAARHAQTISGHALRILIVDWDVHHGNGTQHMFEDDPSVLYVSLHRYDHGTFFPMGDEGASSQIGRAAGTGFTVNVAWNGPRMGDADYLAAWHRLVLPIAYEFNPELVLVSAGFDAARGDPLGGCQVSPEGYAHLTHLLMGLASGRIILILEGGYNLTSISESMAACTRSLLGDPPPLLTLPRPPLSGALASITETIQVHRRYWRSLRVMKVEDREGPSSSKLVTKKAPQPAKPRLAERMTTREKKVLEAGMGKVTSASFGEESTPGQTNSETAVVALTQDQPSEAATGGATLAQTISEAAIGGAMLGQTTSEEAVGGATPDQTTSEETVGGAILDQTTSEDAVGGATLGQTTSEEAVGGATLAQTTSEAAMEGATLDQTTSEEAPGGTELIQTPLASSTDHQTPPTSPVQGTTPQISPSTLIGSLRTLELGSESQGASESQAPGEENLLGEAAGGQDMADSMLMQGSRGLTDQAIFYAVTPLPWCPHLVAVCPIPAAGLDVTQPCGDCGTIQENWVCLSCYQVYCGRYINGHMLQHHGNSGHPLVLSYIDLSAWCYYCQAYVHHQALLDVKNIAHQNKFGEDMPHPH
The experiment in a line: Inhibition of HDAC6 in human MDA-MB-231 cells assessed as increase in acetylated alpha tubulin level at 1 uM after 3 hrs by Western blot analysis. Type of data set: cell-based.

Data set [6] has as its system U-937. Description: Antiproliferative activity against human U937 cells after 48 hrs by MTT assay. Type of data set: functional, cell-based. Conditions: U-937, 48 h.
The test system of data set [7] is MDA-MB-231. Description: Antiproliferative activity against human MDA-MB-231 cells after 48 hrs by MTT assay. Type of data set: functional, cell-based. Conditions: MDA-MB-231, 48 h. A general note: Tetrazolium dyes change colour on reduction, which living cells bring about.
The test system of data set [8] is MDA-MB-231. Description: Antitumor activity against human MDA-MB-231 cells xenografted subcutaneously in BALB/c nude mouse assessed as reduction in tumor volume at 90 mg/kg, po. Type of data set: functional, organism-based.
In data set [9] the test system is U-266. Description: Antiproliferative activity against human U266 cells after 48 hrs by MTT assay. Type of data set: functional, cell-based. Conditions: U-266, 48 h.

Active and inactive are the calls of the source. The calls are words filed in the database; no cut-off is given here.

For the compound `CN(C)c1ccc(NC(=O)[C@@H]2Cc3ccc(OCC(=O)NO)cc3CN2C(=O)CNC(=O)CC(C)(C)C)cc1`, the half-life in data set [1] worked out at 1.13 h. This compound yielded an IC50 in data set [2] of 0.377 µM.
Regarding `CC[C@H](C)[C@H](NC(=O)CC(C)(C)C)C(=O)N1Cc2cc(OCC(=O)NO)ccc2C[C@H]1C(=O)Nc1ccc(OC)cc1`, the inhibition entry in [3], in [5] and in [8] was “Active” in each case. In data set [1], this compound came in with a half-life of 1.72 h. Besides, in data set [4], the TGI entry was “Active”. Besides, the IC50 in data set [6] was 0.56 µM; in data set [7], 2.56 µM; in data set [2], 0.0694 µM; in [9], 0.69 µM.
For `CC[C@H](C)[C@H](NC(=O)CC(C)(C)C)C(=O)N1Cc2cc(OCC(=O)NO)ccc2C[C@H]1C(=O)Nc1ccc(N(C)C)cc1`, the inhibition entry in data set [3], in data set [5] and in data set [8] was “Active” in each case. This compound showed a half-life in [1] of 10.5 h. For the same compound, the TGI entry in data set [4] is “Active”. Besides, the IC50 was found to be 0.55 µM in data set [6], 2.13 µM in data set [7], 0.0385 µM in data set [2] and 0.78 µM in [9].
`CC[C@H](C)[C@H](NC(=O)OC(C)(C)C)C(=O)N1Cc2cc(OCC(=O)NO)ccc2C[C@H]1C(=O)Nc1ccc(N(C)C)cc1` had a half-life in [1] of 2.18 h. In addition, the IC50 in [2] was determined as 0.055 µM.

Broadly, the half-life is the time in which the quantity being followed falls by half. Higher therefore signals slow decline. The IC50 is the concentration needed to halve the response being measured.
